Legend:
[1] = test system: p65/RELA subunit of NF-kB; test: Immunofluorescence of p65/RelA localization in melanoma cells; assay type: cell-based, human; settings: for effect on NF-kB nuclear relocation by MITF-silencing: 3-AB 20 mM, sulfasalazine 500 μM
Description: Melanoma cells seeded on glass coverslips in 12-well dishes, were transfected with siC or siMi. When indicated cells were exposed to TNFa (10 ng/ml). Ninety-six hours later, cells were fixed and permeabilized as previously described (Khaled et al. 2003) before being exposed to anti-MITF (Abcam), anti-p65/RelA (Santa Cruz biotechnology), 53BP1 (Bethyl Laboratories) and E-cadherin (BD Transduction Laboratories) antibodies. Cells were washed thrice with PBS, and then incubated for 1 hour with 1:1000 dilution anti-mouse or anti-rabbit Alexa Fluor 488 or Alexa Fluor 594 labeled secondary antibody (Invitrogen, San Diego, Calif., USA) and mounted using Gel/Mount (Biomeda corp., Foster City Calif.). Immunofluorescences were examined and photographed with a Zeiss Axiophot microscope equipped with epifluorescence illumination.

NF-kB = NF-kB luciferase reporter assay in 501mel cells; assay type: cell-based, human
Description: 501mel melanoma cells were transiently transfected as previously described using the lipofectamine reagent (Invitrogen) (Bertolotto et al. 1998). Briefly, cells were transiently transfected with 0.3 μg of NF-kB reporter construct and 0.05 μg pCMVbGal to control the variability in transfection efficiency. The transfection medium was changed 6 hours later and when indicated, cells were transfected as described above with 50 nM of siC or siMi and/or siIKK2 or were exposed to drugs. Cells were assayed for luciferase and b-galactosidase activities 48 hours later. Transfections were repeated at least three times.

CCL2 = CCL2 ELISA in supernatant of MCF7 cells; assay type: cell-based, human; parameters: CCL2 secretion of MCF7 cells: dose or concentration left out as unconfirmed; settings: for effect on CCL2 secretion of H2O2-treated senescent MCF7 cells: sulfasalazine 500 μM, 3-AB 20 mM
Text: CCL2 level in the supernatant of the different melanoma cell lines, in that of MCF7 cells or in that of 501mel cells transfected with siC or siMi for 96 hrs, in presence or absence of drugs, was quantified by ELISA (R&D systems). Results from two independent experiments were normalized to cell number and expressed as ng/ml/10^6 cells.

IKK2, p53, PARP-1 = test: Western blot of 501mel cell extracts (IKK2, p53, poly-(ADP rybosyl)ation); assay type: cell-based, human
Description: Western blots were carried out as previously described (Hilmi et al. 2008). Briefly, cell lysates (30 μg) were separated by SDS-PAGE, transferred on to a PVDF membrane and then exposed to the appropriate antibodies, anti-MITF (Abcam), anti-ERK2 (D-2 Santa Cruz biotechnology), anti-p53 (DO-1, Santa Cruz biotechnology), anti-PARP (Santa Cruz biotechnology), anti-IKK2 and anti-PARP (Cell Signaling Technology Inc.). Horseradish peroxidase-conjugated anti-rabbit or anti-mouse antibodies were from Dakopatts (Glostrup, Denmark). Proteins were visualized with the ECL system (Amersham). The western blots shown are representative of at least 3 independent experiments.

[2] = test system: 501mel human melanoma cells; test: Senescence of 501mel melanoma cells (morphology, SA-b-Gal staining at pH6); assay type: cell-based; settings: flattened and enlarged morphology, SA-b-Gal reactivity at pH6
Description: (§1) 501mel human melanoma cells and MCF7 human breast cancer cells were grown in DMEM supplemented with 7% FBS at 37° C. in a humidified atmosphere containing 5% CO2. Lipofectamine™ RNAiMAX and opti-MEM medium were purchased from Invitrogen (San Diego, Calif., USA). TNFa and recombinant human CCL2 were from PeproTech Inc (Rocky Hill, N.J.), sulfasalazine and 3-AB from Sigma Chem. Co (St Louis, Mo.), mouse anti-CCL2 from R&D Systems and KU55933 from Calbiochem. The senescence b-galactosidase staining kit from Cell Signaling Technology (Beverly, Mass., USA) was used to histochemically detect b-galactosidase activity at pH6 as previously reported (Giuliano et al. 2010a). The percentage of means and standard deviations were derived from counting 100 cells in duplicate plates after 96 hrs.

501mel cells = test: Invasion assay, matrigel-coated modified Boyden chamber, naive 501mel cells; assay type: cell-based, human; settings: recombinant CCL2 100 ng/ml as chemoattractant
Description: (§2) Cell invasion was assessed using a modified Boyden chamber assay with […] pore filter inserts for 24-well plates (BD Bioscience). 501mel cells were seeded on the upper chamber of matrigel-coated trans-well and chemoattractants (conditioned media or recombinant molecules) placed into the lower chamber. Twenty-four hours later, cells adherent to the underside of the filters were fixed with 4% PFA, stained with 0.4% crystal violet and five random fields at ×20 magnification were counted. Results represent the average of triplicate samples from three independent experiments.

MITF = settings: Mhaidat et al. 2007; Liu et al. 2009; cited from earlier work
MCF7 cells = test: Invasion assay, Boyden chamber, naive MCF7 cells; assay type: cell-based, human
Description: (a) Conditioned media of control or senescent MCF7 (H2O2 treated) were added to the lower compartment of Boyden chambers to assess their chemotactic activity. Cells that had migrated to the underside of the upper compartment were stained 24 hrs later with crystal violet and the number of nuclei was counted using NIH-imageJ analysis software. Values represent mean+SD of three independent experiments. (b) ELISA test of CCL2 level in the conditioned media of control MCF7 or MCF7 incubated with H2O2 ([…]) and when indicated with sulfasalazine (500 μM) or 3-AB (20 mM). Data are represented as mean+SD.
as §2

[3] = test system: MCF7 human breast cancer cells; test: Senescence, DNA damage and NF-kB activation of MCF7 cells; assay type: cell-based
Description: as §1
We next wondered if a similar PARP-1 and NF-kB-assiocated secretome (PNAS) could be observed in non-melanoma cells that have entered a program of senescence. […] Although CCL2 was not expected to be the major component of MCF7's secretome, CCL2 measurement was used as a readout of its formation. […] Together, our result reveal that PNAS during cellular senescence is a common mechanism that relies on activation of the DNA damages/NF-kB signaling cascade in both melanoma and non-melanoma cell lines.

[4] = 3-AB 20 mM, sulfasalazine 500 μM

## NC(=O)c1cccc(N)c1 [3-AB, 3-aminobenzamide]
[1]
  effect on NF-kB nuclear relocation by MITF-silencing: no longer able to relocate NF-kB to the nucleus
NF-kB; 3-AB 20 mM, FMT 40 mM, TMZ 900 nM, H2O2 100 mM
  effect on NF-kB transcriptional activity stimulated by oxidative stress and chemotherapeutic drugs: prevented
NF-kB; [4]
  effect on stimulation of NF-kB transcriptional activity by MITF-silencing: no longer able
CCL2
  effect on CCL2 secretion of H2O2-treated senescent MCF7 cells: impaired
IKK2, p53, PARP-1; western blot
  effect on p53 up-regulation mediated by MITF silencing: almost completely abrogated

## TNFa
[1]; TNFa 10 ng/ml
  cellular localization of p65/RELA: p65 relocalized to the nucleus
NF-kB; 501mel cells, TNFα 10 ng/ml, FMT 40 mM, TMZ 900 nM, H2O2 100 mM
  NF-kB transcriptional activity (luciferase reporter): up-regulated

## O=C(O)c1cc(/N=N/c2ccc(S(=O)(=O)Nc3ccccn3)cc2)ccc1O [sulfasalazine]
[1]
  effect on NF-kB nuclear relocation by MITF-silencing: no longer able to relocate NF-kB to the nucleus
NF-kB; [4]
  effect on stimulation of NF-kB transcriptional activity by MITF-silencing: no longer able
NF-kB; sulfasalazine 500 μM, siIKK2 co-knockdown
  effect on activation of the NF-kB reporter gene by siMITF or TNFa: prevented activation of the NF-kB reporter gene
CCL2
  effect on CCL2 secretion of H2O2-treated senescent MCF7 cells: impaired
IKK2, p53, PARP-1; western blot
  effect on IKK2 up-regulation mediated by MITF silencing: abrogated
  effect on p53 up-regulation mediated by MITF silencing: modestly affected

## CCOP(=O)(OCC)C(C)NC(=O)N(CCCl)N=O (centres unmarked) [fotemustine]
[2]
  senescence of melanoma cells: extended these findings

## CCL2: recombinant human CCL2 from PeproTech, chemokine
501mel cells
  invasive capability of naive 501mel cells: stimulated the invasive capability

## OO [H2O2]
MITF
  MITF expression: decreased the expression of MITF
MCF7 cells
  invasion of naive MCF7 cells toward supernatant of treated (senescent) MCF7: enhanced the invasion of naïve MCF7 cells
CCL2; H2O2
  CCL2 secretion of MCF7 cells: resulted in CCL2 secretion
[3]
  DNA damage in MCF7 cells (gH2AX labeling): DNA damage induction
  NF-kB activity in MCF7 cells (nuclear localization of p65/RELA): stimulation of NF-kB activity
[3]; morphological changes, SA-b-galactosidase, p53 and p21
  senescence of MCF7 cells: underwent senescence
IKK2, p53, PARP-1
  poly-(ADP rybosyl)ation in melanoma cells: increased poly-(ADP rybosyl)ation
[2]
  senescence of melanoma cells: underwent premature senescence

Source: patent US20140199292A1, “COMPOSITIONS AND METHODS FOR INHIBITING TUMOR DEVELOPMENT CAUSED BY CHEMOTHERAPY INDUCED SENESCENCE” (INSERM (Institut National de la Sante et de la Recherche …, priority 2011, published 2014)
